Experimental data published in publication PMC7501227, “Flatfishes colonised freshwater environments by acquisition of various DHA biosynthetic pathways” (Communications Biology, 2020).
Values belong to the compound of their own block, whether it stands above or below them.

How the values were obtained:
Elovl5 (H. mentalis) = target: T1, Elovl5 (H. mentalis) (Hypoclinemus mentalis, UniProt A0A7G1GDF4); test: yeast expression, GC of FAMEs, % conversion; format: cell-based; conditions: elongation of C18 substrate; yeast culture 48 h, 30 °C
T1 construct: full ORF in pYES2, expressed in S. cerevisiae INVSc1
T1 sequence (A0A7G1GDF4 1-294): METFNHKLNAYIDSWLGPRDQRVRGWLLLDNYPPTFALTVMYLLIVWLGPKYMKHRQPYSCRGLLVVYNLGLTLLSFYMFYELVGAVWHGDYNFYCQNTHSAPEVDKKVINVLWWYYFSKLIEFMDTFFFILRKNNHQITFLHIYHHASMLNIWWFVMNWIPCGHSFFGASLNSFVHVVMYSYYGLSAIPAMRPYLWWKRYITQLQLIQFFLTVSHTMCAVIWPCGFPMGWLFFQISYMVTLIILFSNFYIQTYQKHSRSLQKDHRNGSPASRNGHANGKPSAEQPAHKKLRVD

Elovl5 (T. maculatus) = target: T2, Elovl5 (T. maculatus) (Trinectes maculatus, UniProt A0A7G1GDF5); test: yeast expression, GC of FAMEs, % conversion; format: cell-based; conditions: elongation of C18 substrate; yeast culture 48 h, 30 °C
T2 construct: full ORF in pYES2, expressed in S. cerevisiae INVSc1
T2 sequence (A0A7G1GDF5 1-294): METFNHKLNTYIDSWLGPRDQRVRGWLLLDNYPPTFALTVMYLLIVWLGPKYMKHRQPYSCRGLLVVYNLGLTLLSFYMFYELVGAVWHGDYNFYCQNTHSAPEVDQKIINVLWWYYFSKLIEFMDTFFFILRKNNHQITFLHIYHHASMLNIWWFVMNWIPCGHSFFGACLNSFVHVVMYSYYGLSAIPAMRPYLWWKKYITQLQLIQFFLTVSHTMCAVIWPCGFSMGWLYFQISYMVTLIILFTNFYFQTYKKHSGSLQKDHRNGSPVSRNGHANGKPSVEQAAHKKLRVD

Elovl5 (G. melas) = target: T3, Elovl5 (G. melas) (Gymnachirus melas, UniProt A0A7G1GDB9); test: yeast expression, GC of FAMEs, % conversion; format: cell-based; conditions: elongation of C18 substrate; yeast culture 48 h, 30 °C
T3 construct: full ORF in pYES2, expressed in S. cerevisiae INVSc1
T3 sequence (A0A7G1GDB9 1-294): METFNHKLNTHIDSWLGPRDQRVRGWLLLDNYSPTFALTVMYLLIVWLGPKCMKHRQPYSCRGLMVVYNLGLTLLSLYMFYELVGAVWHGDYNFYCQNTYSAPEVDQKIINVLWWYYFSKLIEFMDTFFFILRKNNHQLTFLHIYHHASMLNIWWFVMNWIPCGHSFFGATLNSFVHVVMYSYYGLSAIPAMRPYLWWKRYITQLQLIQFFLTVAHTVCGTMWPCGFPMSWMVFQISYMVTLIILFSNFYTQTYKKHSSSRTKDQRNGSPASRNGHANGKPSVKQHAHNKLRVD

Fads2 (A. finis) [1] = target: T4, Fads2 (A. finis) (Apionichthys finis, UniProt A0A7G1GDB3); test: yeast co-expression with zebrafish Elovl2, GC of FAMEs; format: cell-based; set-up: full ORF in pYES2, expressed in S. cerevisiae INVSc1; conditions: Δ6 desaturation; 24:5n-3 formed in the yeast from 22:5n-3 by zebrafish Elovl2; normalised to 18:3n-3
Fads2a (H. mentalis) = target: T5, Fads2a (H. mentalis) (Hypoclinemus mentalis, UniProt A0A7G1GDA4); test: yeast expression, GC of FAMEs, % conversion; format: cell-based; conditions: Δ6 desaturation; yeast culture 48 h, 30 °C
T5 construct: full ORF in pYES2, 442 residues, expressed in S. cerevisiae INVSc1

Fads2 (A. finis) [2] = target: T4, Fads2 (A. finis); conditions: Δ6 desaturation; yeast culture 48 h, 30 °C

T4 sequence (A0A7G1GDB3 entry or part of it): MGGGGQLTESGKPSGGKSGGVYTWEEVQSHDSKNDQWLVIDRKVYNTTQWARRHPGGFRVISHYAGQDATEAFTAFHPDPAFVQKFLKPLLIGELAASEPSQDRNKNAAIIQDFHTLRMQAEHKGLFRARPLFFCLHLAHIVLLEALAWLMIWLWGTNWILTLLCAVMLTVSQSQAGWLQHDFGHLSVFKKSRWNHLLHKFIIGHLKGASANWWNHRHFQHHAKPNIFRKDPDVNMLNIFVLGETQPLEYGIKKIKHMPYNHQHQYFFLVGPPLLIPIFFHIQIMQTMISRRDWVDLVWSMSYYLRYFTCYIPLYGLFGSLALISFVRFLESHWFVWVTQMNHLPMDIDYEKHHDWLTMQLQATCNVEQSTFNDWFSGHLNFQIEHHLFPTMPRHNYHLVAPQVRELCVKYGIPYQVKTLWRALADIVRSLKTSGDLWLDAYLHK
T5 sequence (A0A7G1GDA4 entry or part of it): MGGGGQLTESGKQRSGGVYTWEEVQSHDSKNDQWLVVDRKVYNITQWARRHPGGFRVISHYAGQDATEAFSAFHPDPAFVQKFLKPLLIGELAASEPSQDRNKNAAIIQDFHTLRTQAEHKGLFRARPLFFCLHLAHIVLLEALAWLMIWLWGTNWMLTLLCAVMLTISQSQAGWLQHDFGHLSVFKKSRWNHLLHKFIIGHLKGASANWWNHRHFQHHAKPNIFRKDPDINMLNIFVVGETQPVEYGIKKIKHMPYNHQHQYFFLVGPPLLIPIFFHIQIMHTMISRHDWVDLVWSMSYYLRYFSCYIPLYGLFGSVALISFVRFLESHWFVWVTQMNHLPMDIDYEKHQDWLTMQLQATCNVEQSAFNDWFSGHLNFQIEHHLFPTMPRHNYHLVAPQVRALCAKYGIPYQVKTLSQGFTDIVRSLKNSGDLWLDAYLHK

SMILES: CC/C=C\C/C=C\C/C=C\C/C=C\CCCCC(=O)O [18:4n − 3]
- yeast expression, GC of FAMEs, % conversion (Elovl5 (H. mentalis)): The Elovl5 performed elongations of C18 to C22 substrates
- yeast expression, GC of FAMEs, % conversion (Elovl5 (T. maculatus)): The Elovl5 showed elongase activities towards C18 to C22 substrates
- yeast expression, GC of FAMEs, % conversion (Elovl5 (G. melas)): The G. melas Elovl5 exhibited activity towards C18 to C22 substrates

SMILES: CC/C=C\C/C=C\C/C=C\C/C=C\C/C=C\CCCCCCCC(=O)O [24:5n − 3]
- yeast co-expression with zebrafish Elovl2, GC of FAMEs (Fads2 (A. finis) [1]): desaturation at the highest efficiency among the four species

- yeast expression, GC of FAMEs, % conversion (Fads2 (A. finis) [2]): The Fads2 isolated from A. finis showed
SMILES: CC/C=C\C/C=C\C/C=C\CCCCCCCC(=O)O [α-linolenic acid]
- yeast expression, GC of FAMEs, % conversion (Fads2a (H. mentalis)): The two Fads2, namely Fads2a and Fads2b, showed distinct activities
